According to patent US20140162876A1, “Fungicidal substituted 1--1H-[1,2,4]triazole compounds” (BASF SE, priority 2011, published 2014):

Legend:
Septoria tritici [1] = assay: G1 Preventative control of leaf blotch on wheat caused by Septoria tritici (Septtr P7), green house; type: in vivo; conditions: wheat sprayed 7 days before inoculation, % diseased leaf area, untreated control 80
Protocol: The spray solutions were prepared in several steps: The stock solution were prepared: a mixture of acetone and/or dimethylsulfoxide and the wetting agent/emulsifier Wettol, which is based on ethoxylated alkylphenoles, in a relation (volume) solvent-emulsifier of 99 to 1 was added to 25 mg of the compound to give a total of 5 ml. Water was then added to total volume of 100 ml. This stock solution was diluted with the described solvent-emulsifier-water mixture to the given concentration. G1 Preventative Control of Leaf Blotch on Wheat Caused by Septoria tritici (Septtr P7) Leaves of pot-grown wheat seedling were sprayed to run-off with an aqueous suspension of the active compound or their mixture, prepared as described. The plants were allowed to air-dry. Seven days later the plants were inoculated with an aqueous spore suspension of Septoria tritici. Then the trial plants were immediately transferred to a humid chamber at 18-22° C. and a relative humidity close to 100%. […] After 4 weeks the extent of fungal attack on the leaves was visually assessed as % diseased leaf area.

Phakopsora pachyrhizi = assay: G4 Protective control of soy bean rust on soy beans caused by Phakopsora pachyrhizi (Phakpa P2), green house; type: in vivo; conditions: soy bean sprayed 2 days before inoculation, % diseased leaf area, untreated control 90
Botrytis cinerea = assay: M2 Activity against the grey mold Botrytis cinerea in the microtiterplate test (Botrci); type: cell-based; conditions: microtiter plate, 7 days after inoculation
Septoria tritici [2] = assay: G2 Curative control of leaf blotch on wheat caused by Septoria tritici (Septtr K7), green house; type: in vivo; conditions: wheat sprayed 7 days after inoculation (curative), % diseased leaf area, untreated control 80
Protocol: The spray solutions were prepared in several steps: The stock solution were prepared: a mixture of acetone and/or dimethylsulfoxide and the wetting agent/emulsifier Wettol, which is based on ethoxylated alkylphenoles, in a relation (volume) solvent-emulsifier of 99 to 1 was added to 25 mg of the compound to give a total of 5 ml. Water was then added to total volume of 100 ml. This stock solution was diluted with the described solvent-emulsifier-water mixture to the given concentration. G2 Curative Control of Leaf Blotch on Wheat Caused by Septoria tritici (Septtr K7) Leaves of pot-grown wheat seedling were inoculated with an aqueous spore suspension of Septoria tritici. Then the trial plants were immediately transferred to a humid chamber at 18-22° C. and a relative humidity close to 100%. […] Seven days after inoculation the plants were sprayed to run-off with an aqueous suspension of the active compound or their mixture, prepared as described. […] After 4 weeks the extent of fungal attack on the leaves was visually assessed as % diseased leaf area.

Septoria tritici [3] = assay: M4 Activity against leaf blotch on wheat caused by Septoria tritici (Septtr), microtest; type: cell-based; conditions: microtiter plate, 7 days after inoculation
Alternaria solani = assay: M3 Activity against early blight caused by Alternaria solani (Alteso), microtest; type: cell-based; conditions: microtiter plate, 7 days after inoculation
Pyricularia oryzae = type: cell-based; conditions: microtiter plate, 7 days after inoculation

Structure (SMILES) | Disease (%) at 16 ppm Septtr P7 (Septoria tritici [1]) [%] | Disease (%) at 16 ppm Phakpa P2 (Phakopsora pachyrhizi) [%] | Disease (%) at 2 ppm Botrci (Botrytis cinerea) [%] | Disease (%) at 250 ppm Septtr K7 (Septoria tritici [2]) [%] | Disease (%) at 0.032 ppm Septtr (Septoria tritici [3]) [%] | Disease (%) at 250 ppm Phakpa P2 (Phakopsora pachyrhizi) [%] | Disease (%) at 0.125 ppm Alteso (Alternaria solani) [%] | Disease (%) at 0.125 ppm Pyrior (Pyricularia oryzae) [%]
COC(C)(Cn1cncn1)c1ccc(Oc2ccc(Cl)cc2)cc1Cl (stereo not shown) | 80 |  |  |  |  |  |  | 
CCC(Cn1cncn1)(OC)c1ccc(Oc2ccc(Cl)cc2)cc1Cl (stereo not shown) |  | 80 |  |  |  |  |  | 
CCOC(C)(Cn1cncn1)c1ccc(Oc2ccc(Cl)cc2)cc1Cl (stereo not shown) [Compound I-1] | 40 |  | 0 | 10 | 5 | 5 | 25 | 50
CCOC(CC)(Cn1cncn1)c1ccc(Oc2ccc(Cl)cc2)cc1Cl (stereo not shown) [Compound I-2, 1-[2-[2-chloro-4-(4-chlorophenoxy)phenyl]-2-ethoxy-butyl]-1,2,4-triazole] |  | 40 |  |  |  |  |  | 
CCOC(Cn1cncn1)c1ccc(Oc2ccc(Cl)cc2)cc1Cl (stereo not shown) [drawing 21] |  |  |  | 40 |  | 30 |  | 
CCOC(Cn1cncn1)c1ccc(Oc2ccc(Cl)cc2)cc1Cl (stereo not shown) [drawing 24] |  |  | 24 |  | 31 |  | 44 | 84
